{
  "source": "paper PMC9851200",
  "about": "“Multiparameter phenotypic screening for endogenous TFEB and TFE3 translocation identifies novel chemical series modulating lysosome function” (Autophagy, 2022)",
  "origin": "cited, not measured here",
  "parameters_in_all_cases": "method as in original PKIS2 published data",
  "key": {"[1]": {"target": "kinases (KINOMEscan panel) (Homo sapiens, UniProt P04626)", "conditions": "kinase ERBB2; Published KINOMEscan; ref original PKIS2 published data; cited from earlier work"}, "[2]": {"target": "kinases (KINOMEscan panel) (Homo sapiens, UniProt Q05655)", "sequence (Q05655 whole entry)": "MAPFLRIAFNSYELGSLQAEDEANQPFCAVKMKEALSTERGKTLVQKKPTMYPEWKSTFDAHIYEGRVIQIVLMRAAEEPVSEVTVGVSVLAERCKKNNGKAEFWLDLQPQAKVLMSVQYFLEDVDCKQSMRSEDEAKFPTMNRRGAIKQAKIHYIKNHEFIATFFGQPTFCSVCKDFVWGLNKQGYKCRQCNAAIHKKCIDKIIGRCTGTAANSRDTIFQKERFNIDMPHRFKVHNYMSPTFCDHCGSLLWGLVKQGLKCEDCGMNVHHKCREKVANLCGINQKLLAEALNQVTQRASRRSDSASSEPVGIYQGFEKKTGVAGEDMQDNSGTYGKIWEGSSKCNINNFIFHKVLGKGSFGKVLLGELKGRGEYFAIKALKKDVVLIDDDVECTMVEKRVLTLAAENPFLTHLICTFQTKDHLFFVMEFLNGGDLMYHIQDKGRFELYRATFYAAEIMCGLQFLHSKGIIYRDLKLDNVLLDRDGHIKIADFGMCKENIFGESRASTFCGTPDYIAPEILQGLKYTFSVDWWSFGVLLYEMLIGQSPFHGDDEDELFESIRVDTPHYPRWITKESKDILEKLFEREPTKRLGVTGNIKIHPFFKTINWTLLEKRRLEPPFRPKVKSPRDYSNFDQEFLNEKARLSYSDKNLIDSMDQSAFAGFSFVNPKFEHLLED", "conditions": "kinase PRKCD; Published KINOMEscan; ref original PKIS2 published data; cited from earlier work"}, "[3]": {"target": "kinases (KINOMEscan panel) (Homo sapiens, UniProt P27448)", "conditions": "MARK3; Published KINOMEscan; ref original PKIS2 published data; cited from earlier work"}, "[4]": {"target": "kinases (KINOMEscan panel) (Homo sapiens, UniProt P29376)", "conditions": "LTK; Published KINOMEscan; ref original PKIS2 published data; cited from earlier work"}, "[5]": {"target": "kinases (KINOMEscan panel) (Homo sapiens, UniProt Q07002)", "sequence (Q07002 whole entry)": "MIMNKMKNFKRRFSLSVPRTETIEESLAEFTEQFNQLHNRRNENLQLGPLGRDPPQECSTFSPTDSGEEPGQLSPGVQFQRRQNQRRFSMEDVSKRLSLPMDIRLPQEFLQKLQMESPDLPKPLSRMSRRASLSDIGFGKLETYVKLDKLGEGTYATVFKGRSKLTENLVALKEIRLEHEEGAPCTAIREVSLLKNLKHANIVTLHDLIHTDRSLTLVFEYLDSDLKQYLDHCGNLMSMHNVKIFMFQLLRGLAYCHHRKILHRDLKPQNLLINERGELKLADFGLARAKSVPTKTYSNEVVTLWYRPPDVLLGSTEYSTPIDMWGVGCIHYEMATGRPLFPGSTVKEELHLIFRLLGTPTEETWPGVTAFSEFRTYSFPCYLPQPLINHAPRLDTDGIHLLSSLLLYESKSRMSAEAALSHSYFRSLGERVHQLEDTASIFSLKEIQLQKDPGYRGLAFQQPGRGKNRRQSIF", "conditions": "kinase CDK18; Published KINOMEscan; ref original PKIS2 published data; cited from earlier work"}, "[6]": {"target": "kinases (KINOMEscan panel) (Homo sapiens, UniProt P54764)", "sequence (P54764 20-986)": "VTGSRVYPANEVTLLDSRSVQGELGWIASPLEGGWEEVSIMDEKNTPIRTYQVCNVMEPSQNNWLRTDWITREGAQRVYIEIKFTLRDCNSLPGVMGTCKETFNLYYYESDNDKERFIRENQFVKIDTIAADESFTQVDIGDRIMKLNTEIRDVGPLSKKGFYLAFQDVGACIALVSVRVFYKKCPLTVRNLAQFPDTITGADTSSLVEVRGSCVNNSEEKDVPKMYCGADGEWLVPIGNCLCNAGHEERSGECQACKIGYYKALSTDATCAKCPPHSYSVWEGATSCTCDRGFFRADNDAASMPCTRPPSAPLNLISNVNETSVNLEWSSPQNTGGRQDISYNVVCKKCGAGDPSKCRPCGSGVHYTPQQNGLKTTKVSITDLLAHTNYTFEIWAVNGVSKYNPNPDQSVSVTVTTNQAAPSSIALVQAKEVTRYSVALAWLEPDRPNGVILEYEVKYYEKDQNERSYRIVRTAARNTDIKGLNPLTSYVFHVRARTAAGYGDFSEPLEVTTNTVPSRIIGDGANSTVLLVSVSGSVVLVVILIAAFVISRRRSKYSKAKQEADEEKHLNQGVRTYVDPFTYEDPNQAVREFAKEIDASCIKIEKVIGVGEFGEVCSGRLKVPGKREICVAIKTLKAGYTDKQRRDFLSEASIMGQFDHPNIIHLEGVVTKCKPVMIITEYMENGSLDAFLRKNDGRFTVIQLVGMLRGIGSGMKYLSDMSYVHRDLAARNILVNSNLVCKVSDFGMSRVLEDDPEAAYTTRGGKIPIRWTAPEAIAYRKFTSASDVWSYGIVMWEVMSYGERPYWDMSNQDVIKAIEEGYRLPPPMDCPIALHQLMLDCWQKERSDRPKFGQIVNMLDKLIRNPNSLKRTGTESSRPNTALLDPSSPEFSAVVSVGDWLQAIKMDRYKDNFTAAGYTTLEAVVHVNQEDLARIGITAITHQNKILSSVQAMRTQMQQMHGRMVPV", "conditions": "EPHA4; Published KINOMEscan; ref original PKIS2 published data; cited from earlier work"}, "[7]": {"target": "kinases (KINOMEscan panel) (Homo sapiens, UniProt P42338)", "sequence (P42338 whole entry)": "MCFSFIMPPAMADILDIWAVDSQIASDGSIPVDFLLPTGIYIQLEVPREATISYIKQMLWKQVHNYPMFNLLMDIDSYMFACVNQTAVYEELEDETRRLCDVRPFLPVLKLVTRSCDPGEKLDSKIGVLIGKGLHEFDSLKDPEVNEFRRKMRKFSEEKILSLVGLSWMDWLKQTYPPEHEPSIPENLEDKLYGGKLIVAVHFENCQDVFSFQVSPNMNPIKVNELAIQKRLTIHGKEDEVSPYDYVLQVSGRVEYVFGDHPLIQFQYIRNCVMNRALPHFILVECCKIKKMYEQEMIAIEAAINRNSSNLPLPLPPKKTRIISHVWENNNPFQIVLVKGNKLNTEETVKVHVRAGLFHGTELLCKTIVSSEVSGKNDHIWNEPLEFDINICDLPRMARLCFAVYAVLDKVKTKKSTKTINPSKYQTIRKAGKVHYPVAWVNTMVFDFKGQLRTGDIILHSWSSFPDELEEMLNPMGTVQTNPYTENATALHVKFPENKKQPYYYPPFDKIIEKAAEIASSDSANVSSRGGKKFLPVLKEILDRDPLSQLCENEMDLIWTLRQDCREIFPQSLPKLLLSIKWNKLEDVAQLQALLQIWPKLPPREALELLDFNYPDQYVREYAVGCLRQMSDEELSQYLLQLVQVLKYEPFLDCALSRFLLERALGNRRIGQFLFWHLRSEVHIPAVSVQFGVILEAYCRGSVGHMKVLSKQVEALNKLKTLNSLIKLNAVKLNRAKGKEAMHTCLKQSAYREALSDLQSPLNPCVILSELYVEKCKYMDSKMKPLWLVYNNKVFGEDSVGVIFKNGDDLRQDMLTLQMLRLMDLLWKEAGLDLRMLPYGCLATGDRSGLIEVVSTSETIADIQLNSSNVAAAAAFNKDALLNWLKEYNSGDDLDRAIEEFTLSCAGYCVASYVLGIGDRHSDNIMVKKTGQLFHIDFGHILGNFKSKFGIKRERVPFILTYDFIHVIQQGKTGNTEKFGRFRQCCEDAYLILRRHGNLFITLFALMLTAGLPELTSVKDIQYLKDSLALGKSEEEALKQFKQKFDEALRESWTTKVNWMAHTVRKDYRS", "conditions": "PIK3CB; Published KINOMEscan; ref original PKIS2 published data; cited from earlier work"}, "[8]": {"target": "kinases (KINOMEscan panel) (Homo sapiens, UniProt P31751)", "sequence (P31751 whole entry)": "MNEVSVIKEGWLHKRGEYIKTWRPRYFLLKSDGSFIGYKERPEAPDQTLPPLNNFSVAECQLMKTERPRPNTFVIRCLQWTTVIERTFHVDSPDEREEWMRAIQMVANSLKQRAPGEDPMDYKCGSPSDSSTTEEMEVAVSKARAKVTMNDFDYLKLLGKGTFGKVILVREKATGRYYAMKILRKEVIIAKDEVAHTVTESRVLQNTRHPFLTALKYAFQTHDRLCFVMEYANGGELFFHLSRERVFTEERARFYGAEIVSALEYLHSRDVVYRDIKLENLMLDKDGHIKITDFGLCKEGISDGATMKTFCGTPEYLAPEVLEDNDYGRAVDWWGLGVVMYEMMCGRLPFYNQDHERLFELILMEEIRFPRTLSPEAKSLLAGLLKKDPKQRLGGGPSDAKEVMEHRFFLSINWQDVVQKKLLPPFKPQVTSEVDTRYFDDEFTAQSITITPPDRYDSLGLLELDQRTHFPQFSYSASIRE", "conditions": "Published KINOMEscan; ref original PKIS2 published data; cited from earlier work"}, "[9]": {"target": "kinases (KINOMEscan panel) (Homo sapiens, UniProt Q9HCP0)", "conditions": "kinase CSNK1G1; Published KINOMEscan; ref original PKIS2 published data; cited from earlier work"}, "[10]": {"target": "kinases (KINOMEscan panel) (Homo sapiens, UniProt Q16584)", "conditions": "kinase MAP3K11; Published KINOMEscan; ref original PKIS2 published data; cited from earlier work"}, "[11]": {"target": "kinases (KINOMEscan panel) (Homo sapiens, UniProt Q00535)", "sequence (Q00535 whole entry)": "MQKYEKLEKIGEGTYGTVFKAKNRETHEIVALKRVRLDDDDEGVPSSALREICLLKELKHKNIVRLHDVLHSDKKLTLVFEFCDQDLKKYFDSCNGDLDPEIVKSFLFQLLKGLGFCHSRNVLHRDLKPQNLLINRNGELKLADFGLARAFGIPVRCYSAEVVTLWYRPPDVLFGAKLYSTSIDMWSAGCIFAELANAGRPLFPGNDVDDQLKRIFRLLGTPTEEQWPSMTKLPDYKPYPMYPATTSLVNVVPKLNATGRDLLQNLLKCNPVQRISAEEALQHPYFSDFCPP", "conditions": "Published KINOMEscan; ref original PKIS2 published data; cited from earlier work"}, "[12]": {"target": "kinases (KINOMEscan panel) (Homo sapiens, UniProt P50613)", "sequence (P50613 whole entry)": "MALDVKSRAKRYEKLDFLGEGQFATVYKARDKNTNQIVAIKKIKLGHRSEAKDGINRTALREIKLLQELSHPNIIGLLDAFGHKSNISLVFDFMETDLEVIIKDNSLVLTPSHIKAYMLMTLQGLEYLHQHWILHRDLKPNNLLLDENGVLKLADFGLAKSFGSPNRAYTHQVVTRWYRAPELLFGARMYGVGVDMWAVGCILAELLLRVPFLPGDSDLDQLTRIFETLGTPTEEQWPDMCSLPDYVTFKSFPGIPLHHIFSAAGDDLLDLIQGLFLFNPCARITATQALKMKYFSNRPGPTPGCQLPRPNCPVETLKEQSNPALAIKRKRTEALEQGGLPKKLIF", "conditions": "kinase CDK7; Published KINOMEscan; ref original PKIS2 published data; cited from earlier work"}, "[13]": {"target": "kinases (KINOMEscan panel) (Homo sapiens, UniProt P49840)", "sequence (P49840 whole entry)": "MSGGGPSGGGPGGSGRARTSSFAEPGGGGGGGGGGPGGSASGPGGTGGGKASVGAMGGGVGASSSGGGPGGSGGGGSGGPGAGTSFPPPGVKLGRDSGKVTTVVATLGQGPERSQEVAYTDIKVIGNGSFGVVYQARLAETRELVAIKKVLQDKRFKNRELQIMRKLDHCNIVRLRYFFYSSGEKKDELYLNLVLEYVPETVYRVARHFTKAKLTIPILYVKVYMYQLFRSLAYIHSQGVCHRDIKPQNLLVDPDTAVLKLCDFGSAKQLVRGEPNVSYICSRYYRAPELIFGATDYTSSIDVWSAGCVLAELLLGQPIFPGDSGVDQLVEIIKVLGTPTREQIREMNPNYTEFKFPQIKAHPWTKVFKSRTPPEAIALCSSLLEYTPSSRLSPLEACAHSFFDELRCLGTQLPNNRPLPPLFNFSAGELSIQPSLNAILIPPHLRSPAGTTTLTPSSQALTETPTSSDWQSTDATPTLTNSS", "conditions": "GSK3A; Published KINOMEscan; ref original PKIS2 published data; cited from earlier work"}, "[14]": {"target": "T1, kinases (KINOMEscan panel) (Homo sapiens, UniProt Q9UKI8)", "T1 sequence (Q9UKI8 1-766)": "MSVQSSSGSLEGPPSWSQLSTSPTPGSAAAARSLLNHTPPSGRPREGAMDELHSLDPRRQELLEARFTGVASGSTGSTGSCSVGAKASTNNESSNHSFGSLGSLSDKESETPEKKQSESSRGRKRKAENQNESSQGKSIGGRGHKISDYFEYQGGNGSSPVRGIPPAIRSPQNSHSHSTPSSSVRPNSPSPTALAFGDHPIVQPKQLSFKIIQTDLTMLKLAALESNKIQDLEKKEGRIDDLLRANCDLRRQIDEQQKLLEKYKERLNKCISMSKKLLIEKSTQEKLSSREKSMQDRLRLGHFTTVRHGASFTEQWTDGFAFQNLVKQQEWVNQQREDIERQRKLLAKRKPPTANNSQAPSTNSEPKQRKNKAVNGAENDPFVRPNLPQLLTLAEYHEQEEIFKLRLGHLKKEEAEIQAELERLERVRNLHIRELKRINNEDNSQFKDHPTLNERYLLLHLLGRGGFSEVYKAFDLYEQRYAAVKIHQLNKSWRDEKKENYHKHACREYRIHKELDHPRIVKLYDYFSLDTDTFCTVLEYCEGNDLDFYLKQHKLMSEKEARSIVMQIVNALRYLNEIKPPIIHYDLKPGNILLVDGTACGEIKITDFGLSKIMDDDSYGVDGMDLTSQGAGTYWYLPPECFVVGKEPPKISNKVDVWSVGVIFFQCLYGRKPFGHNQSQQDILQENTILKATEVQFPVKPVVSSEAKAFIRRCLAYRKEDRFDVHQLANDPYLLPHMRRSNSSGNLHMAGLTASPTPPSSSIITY", "conditions": "kinase TLK1; Published KINOMEscan; ref original PKIS2 published data; cited from earlier work"}, "[15]": {"target": "T2, kinases (KINOMEscan panel) (Homo sapiens, UniProt Q9NWZ3)", "T2 sequence (Q9NWZ3 1-460)": "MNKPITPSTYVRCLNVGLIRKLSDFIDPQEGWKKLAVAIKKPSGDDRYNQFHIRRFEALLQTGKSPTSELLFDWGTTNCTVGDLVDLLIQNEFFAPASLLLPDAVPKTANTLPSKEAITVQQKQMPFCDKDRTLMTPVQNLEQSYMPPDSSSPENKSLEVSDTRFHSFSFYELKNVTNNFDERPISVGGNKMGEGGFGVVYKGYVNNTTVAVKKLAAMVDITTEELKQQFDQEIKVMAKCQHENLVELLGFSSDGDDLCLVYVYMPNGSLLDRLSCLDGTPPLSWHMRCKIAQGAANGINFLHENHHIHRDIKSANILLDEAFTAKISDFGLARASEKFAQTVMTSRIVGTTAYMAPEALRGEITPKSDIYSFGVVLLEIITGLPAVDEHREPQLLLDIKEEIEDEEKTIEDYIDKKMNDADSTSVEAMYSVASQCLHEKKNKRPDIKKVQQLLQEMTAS", "conditions": "IRAK4; Published KINOMEscan; ref original PKIS2 published data; cited from earlier work"}},
  "data": [
    {"smiles": "Cc1cccc(-c2nc(Nc3ccncc3)c3ccccc3n2)n1", "note": "[NK215]", "values": [
      {"measurement": "KINOMEscan ERBB2", "setting": "[1]", "result": 7},
      {"measurement": "KINOMEscan PRKCD", "setting": "[2]", "result": 29},
      {"measurement": "KINOMEscan MARK3", "setting": "[3]", "result": 32},
      {"measurement": "KINOMEscan LTK", "setting": "[4]", "result": 21},
      {"measurement": "KINOMEscan CDK18", "setting": "[5]", "result": 0},
      {"measurement": "KINOMEscan EPHA4", "setting": "[6]", "result": 18},
      {"measurement": "KINOMEscan PIK3CB", "setting": "[7]", "result": 0},
      {"measurement": "KINOMEscan AKT2", "setting": "[8]", "result": 0},
      {"measurement": "KINOMEscan CSNK1G1", "setting": "[9]", "result": 0},
      {"measurement": "KINOMEscan MAP3K11", "setting": "[10]", "result": 6},
      {"measurement": "KINOMEscan CDK5", "setting": "[11]", "result": 0},
      {"measurement": "KINOMEscan CDK7", "setting": "[12]", "result": 0},
      {"measurement": "KINOMEscan GSK3A", "setting": "[13]", "result": 4},
      {"measurement": "KINOMEscan TLK1", "setting": "[14]", "result": 0},
      {"measurement": "KINOMEscan IRAK4", "setting": "[15]", "result": 0}
    ]}
  ]
}
